± gives the expanded uncertainty stated by the source.

The conditions of the data set: Crystal; visual observation.

For `COc1ccc2cc([C@H](C)C(=O)O)ccc2c1` [(S)-(+)-naproxen], the Normal melting temperature stood at 155 ± 1.1 °C.
